Source: paper PMC4822888, “Subtype-Selective Small Molecule Inhibitors Reveal a Fundamental Role for Nav1.7 in Nociceptor Electrogenesis, Axonal Conduction and Presynaptic Release” (PLoS ONE, 2016)
Where “and” joins values, the source holds several entries; their conditions need not be identical. Identical values can stand only once.

Experiments:
L-type calcium channels = assay: Blockade of L-type calcium channels
KvLQT = KvLQT (Homo sapiens, UniProt P51787); assay: Blockade of KvLQT potassium channels
human TRPV1 receptor = human TRPV1 receptor (Homo sapiens, UniProt Q8NER1); assay: Blockade of human TRPV1 receptor
Sequence of human TRPV1 receptor (Q8NER1 whole entry): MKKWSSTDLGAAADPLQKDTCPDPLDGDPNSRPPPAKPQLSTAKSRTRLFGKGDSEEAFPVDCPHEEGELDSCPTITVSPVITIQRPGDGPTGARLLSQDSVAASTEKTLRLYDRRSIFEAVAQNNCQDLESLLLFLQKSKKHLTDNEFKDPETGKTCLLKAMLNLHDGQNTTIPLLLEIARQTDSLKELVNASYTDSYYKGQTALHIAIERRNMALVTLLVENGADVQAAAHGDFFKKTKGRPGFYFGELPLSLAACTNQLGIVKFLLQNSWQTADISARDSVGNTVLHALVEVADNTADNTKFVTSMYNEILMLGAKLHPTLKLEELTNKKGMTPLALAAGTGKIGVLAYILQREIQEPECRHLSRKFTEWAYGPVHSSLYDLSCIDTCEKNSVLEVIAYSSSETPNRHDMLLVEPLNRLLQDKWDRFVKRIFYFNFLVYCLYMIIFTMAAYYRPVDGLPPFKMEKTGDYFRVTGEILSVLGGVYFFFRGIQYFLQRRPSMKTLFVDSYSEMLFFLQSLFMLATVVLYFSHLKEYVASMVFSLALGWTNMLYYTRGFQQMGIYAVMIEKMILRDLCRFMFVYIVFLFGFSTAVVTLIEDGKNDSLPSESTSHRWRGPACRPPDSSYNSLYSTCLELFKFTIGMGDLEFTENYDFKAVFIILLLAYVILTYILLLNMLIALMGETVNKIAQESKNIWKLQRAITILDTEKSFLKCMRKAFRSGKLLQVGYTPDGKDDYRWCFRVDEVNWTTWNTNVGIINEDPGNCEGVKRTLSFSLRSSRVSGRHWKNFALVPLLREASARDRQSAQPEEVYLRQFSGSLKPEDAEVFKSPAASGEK

[1] = system: cynomolgus TRPV1 receptor; assay: Blockade of cynomolgus TRPV1 receptor; conditions: tested concentrations up to 10 μM
[2] = system: human DRG neurons (hDRG neurons); assay: Current clamp of action potentials in human DRG neurons; type: cell-based
Adenosine A2a receptor = Adenosine A2a receptor (Homo sapiens, UniProt P29274); assay: Off target activity panel; type: binding; conditions: read-out: Inhibition at test concentration (%)
Abl kinase receptor = Abl kinase receptor (Homo sapiens, UniProt P00519); assay: Off target activity panel; type: biochemical; conditions: read-out: Inhibition at test concentration (%)
[3] = biological target: Angiotensin converting enzyme (Homo sapiens, UniProt P12821); assay: Off target activity panel; type: biochemical; conditions: read-out: Inhibition at test concentration (%)
[4] = biological target: Beta 2 adrenergic receptor (Homo sapiens, UniProt P07550); assay: Off target activity panel; type: binding; conditions: read-out: Inhibition at test concentration (%)
GABA Benzodiazepine site = assay: Off target activity panel; type: binding; conditions: 10 µM
[5] = system: Calcium channel L-type (dihydropyridine site); assay: Off target activity panel; type: binding; conditions: 10 µM
[6] = system: Calcium channel L-type (verapamil site); assay: Off target activity panel; type: binding; conditions: 10 µM
Carbonic anhydrase II = Carbonic anhydrase II (Homo sapiens, UniProt P00918); assay: Off target activity panel; type: biochemical; conditions: read-out: Inhibition at test concentration (%)
[7] = system: Cloride channel (GABA-gated); assay: Off target activity panel; type: binding
[8] = biological target: Cholycystokinin 1 (CCKA) receptor (Homo sapiens, UniProt P32238); assay: Off target activity panel; type: binding; conditions: read-out: Inhibition at test concentration (%)
Cyclooxygenase 1 = Cyclooxygenase 1 (Homo sapiens, UniProt P23219); assay: Off target activity panel; type: biochemical; conditions: read-out: Inhibition at test concentration (%)
Sequence of Cyclooxygenase 1 (P23219 24-599): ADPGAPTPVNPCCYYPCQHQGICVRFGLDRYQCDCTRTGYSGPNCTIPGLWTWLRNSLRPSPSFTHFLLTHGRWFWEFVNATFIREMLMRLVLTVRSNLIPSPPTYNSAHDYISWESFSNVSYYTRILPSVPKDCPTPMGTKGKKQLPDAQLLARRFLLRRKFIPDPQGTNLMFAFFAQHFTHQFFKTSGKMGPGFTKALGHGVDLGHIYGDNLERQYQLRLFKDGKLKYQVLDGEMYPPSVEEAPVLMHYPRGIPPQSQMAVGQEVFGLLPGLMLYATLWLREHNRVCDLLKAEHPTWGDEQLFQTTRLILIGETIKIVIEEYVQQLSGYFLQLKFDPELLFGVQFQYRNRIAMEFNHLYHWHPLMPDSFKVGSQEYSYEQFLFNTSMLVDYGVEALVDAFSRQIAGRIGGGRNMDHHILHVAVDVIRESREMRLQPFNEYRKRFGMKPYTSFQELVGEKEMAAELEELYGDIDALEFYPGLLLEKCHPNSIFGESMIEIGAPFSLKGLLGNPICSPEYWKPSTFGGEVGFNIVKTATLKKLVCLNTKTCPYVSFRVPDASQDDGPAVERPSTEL

Cyclooxegenase 2 = Cyclooxegenase 2 (Homo sapiens, UniProt P35354); assay: Off target activity panel; type: biochemical
Sequence of Cyclooxegenase 2 (P35354 18-604): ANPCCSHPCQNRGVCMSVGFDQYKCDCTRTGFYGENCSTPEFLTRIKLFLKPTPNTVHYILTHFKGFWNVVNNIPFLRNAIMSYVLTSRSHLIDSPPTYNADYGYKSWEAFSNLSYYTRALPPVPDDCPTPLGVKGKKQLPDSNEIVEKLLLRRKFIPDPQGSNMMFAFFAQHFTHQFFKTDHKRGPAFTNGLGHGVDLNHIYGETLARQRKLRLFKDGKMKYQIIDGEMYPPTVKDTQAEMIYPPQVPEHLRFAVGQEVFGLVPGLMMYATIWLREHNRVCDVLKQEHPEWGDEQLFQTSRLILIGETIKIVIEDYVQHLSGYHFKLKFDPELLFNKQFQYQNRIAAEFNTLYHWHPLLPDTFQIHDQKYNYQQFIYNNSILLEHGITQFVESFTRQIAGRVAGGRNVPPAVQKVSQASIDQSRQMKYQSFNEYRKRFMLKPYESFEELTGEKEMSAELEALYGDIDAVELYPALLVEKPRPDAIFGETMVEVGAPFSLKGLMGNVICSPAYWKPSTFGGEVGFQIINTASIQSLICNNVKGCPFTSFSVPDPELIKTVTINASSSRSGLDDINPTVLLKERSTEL

Histamine H3 receptor = Histamine H3 receptor (Homo sapiens, UniProt Q9Y5N1); assay: Off target activity panel; type: binding; conditions: read-out: Inhibition at test concentration (%)
Lyn A kinase = Lyn A kinase (Homo sapiens, UniProt P07948); assay: Off target activity panel; type: biochemical
Sequence of Lyn A kinase (P07948 whole entry): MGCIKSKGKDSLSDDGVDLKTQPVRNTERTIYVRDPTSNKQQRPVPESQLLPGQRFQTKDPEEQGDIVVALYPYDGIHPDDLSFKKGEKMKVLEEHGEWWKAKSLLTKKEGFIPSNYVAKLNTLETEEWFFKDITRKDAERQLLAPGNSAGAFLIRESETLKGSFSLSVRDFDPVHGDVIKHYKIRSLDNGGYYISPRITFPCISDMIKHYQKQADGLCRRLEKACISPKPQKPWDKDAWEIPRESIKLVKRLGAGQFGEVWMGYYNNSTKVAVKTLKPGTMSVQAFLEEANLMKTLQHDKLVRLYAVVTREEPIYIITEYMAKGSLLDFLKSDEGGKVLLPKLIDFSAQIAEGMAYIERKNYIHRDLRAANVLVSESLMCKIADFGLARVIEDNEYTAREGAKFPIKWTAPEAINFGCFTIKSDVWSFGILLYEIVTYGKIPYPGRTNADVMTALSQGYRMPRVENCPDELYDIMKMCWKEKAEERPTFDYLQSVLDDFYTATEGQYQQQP

Melanocortin 4 receptor = Melanocortin 4 receptor (Homo sapiens, UniProt P32245); assay: Off target activity panel; type: binding; conditions: read-out: Inhibition at test concentration (%)
[9] = system: Muscle-type nicotinic receptor; assay: Off target activity panel; type: binding; conditions: 10 µM
Neurokinin NK2 receptor = Neurokinin NK2 receptor (Homo sapiens, UniProt P21452); assay: Off target activity panel; type: binding; conditions: read-out: Inhibition at test concentration (%)
Sequence of Neurokinin NK2 receptor (P21452 whole entry): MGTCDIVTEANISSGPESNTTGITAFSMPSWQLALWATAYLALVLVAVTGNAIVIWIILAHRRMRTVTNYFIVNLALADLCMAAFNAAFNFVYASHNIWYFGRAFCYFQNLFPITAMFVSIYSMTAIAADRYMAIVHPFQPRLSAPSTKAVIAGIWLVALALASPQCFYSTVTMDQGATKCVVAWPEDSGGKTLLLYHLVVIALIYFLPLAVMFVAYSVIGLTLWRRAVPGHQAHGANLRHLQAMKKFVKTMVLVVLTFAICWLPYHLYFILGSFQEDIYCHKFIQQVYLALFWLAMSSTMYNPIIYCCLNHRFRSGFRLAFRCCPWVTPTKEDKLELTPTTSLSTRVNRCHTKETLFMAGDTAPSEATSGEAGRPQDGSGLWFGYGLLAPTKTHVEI

p38alpha kinase = p38alpha kinase (Homo sapiens, UniProt Q16539); assay: Off target activity panel; type: biochemical; conditions: read-out: Inhibition at test concentration (%)
PDE6 = assay: Off target activity panel; type: biochemical; conditions: 10 µM
PDE11 = PDE11 (Homo sapiens, UniProt Q9HCR9); assay: Off target activity panel; type: biochemical; conditions: read-out: Inhibition at test concentration (%)
Sequence of PDE11 (Q9HCR9 whole entry): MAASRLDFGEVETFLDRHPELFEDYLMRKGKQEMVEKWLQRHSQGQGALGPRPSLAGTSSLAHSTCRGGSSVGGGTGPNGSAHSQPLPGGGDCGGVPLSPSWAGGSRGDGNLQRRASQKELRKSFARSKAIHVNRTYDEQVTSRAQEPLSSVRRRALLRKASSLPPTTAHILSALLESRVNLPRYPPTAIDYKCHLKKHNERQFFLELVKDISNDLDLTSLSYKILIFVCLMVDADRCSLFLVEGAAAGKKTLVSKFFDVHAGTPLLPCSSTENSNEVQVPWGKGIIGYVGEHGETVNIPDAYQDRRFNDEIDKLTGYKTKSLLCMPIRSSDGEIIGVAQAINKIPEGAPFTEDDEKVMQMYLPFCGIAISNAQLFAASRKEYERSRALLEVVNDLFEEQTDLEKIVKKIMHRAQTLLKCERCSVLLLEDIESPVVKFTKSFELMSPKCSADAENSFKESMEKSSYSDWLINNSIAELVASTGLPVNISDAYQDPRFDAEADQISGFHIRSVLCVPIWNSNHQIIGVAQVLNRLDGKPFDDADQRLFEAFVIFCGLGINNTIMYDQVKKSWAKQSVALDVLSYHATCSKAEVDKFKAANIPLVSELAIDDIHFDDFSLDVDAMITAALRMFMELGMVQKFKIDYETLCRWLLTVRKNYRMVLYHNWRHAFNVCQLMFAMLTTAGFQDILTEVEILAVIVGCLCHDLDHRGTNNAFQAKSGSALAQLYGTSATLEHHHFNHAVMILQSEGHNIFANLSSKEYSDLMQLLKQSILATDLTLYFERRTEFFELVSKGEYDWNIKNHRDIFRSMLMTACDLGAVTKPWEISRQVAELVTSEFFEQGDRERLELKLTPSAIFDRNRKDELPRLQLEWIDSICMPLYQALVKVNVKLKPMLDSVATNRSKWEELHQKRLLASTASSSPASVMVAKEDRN

PPAR gamma [10] = biological target: T1, PPAR gamma (Homo sapiens, UniProt P37231); assay: Off target activity panel; type: binding
T1 sequence (P37231 1-505): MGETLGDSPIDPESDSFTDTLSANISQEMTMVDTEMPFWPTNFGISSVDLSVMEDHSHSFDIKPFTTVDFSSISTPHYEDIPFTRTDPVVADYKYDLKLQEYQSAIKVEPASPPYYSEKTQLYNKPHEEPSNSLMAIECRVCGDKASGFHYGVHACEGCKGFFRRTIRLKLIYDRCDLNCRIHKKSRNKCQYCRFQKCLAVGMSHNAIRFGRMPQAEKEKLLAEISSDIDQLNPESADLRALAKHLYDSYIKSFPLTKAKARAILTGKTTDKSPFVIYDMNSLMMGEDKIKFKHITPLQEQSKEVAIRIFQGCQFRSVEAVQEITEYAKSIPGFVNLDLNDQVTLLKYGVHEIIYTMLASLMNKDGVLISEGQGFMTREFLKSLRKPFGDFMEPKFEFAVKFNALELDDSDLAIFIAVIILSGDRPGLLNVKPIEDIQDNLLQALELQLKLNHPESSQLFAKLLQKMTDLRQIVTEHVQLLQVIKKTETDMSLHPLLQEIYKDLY

Serotonin 5-HT1B = Serotonin 5-HT1B (Homo sapiens, UniProt P28222); assay: Off target activity panel; type: binding; conditions: read-out: Inhibition at test concentration (%)
Serotonin 5-HT2A = Serotonin 5-HT2A (Homo sapiens, UniProt P28223); assay: Off target activity panel; type: binding; conditions: read-out: Inhibition at test concentration (%)
Sequence of Serotonin 5-HT2A (P28223 whole entry): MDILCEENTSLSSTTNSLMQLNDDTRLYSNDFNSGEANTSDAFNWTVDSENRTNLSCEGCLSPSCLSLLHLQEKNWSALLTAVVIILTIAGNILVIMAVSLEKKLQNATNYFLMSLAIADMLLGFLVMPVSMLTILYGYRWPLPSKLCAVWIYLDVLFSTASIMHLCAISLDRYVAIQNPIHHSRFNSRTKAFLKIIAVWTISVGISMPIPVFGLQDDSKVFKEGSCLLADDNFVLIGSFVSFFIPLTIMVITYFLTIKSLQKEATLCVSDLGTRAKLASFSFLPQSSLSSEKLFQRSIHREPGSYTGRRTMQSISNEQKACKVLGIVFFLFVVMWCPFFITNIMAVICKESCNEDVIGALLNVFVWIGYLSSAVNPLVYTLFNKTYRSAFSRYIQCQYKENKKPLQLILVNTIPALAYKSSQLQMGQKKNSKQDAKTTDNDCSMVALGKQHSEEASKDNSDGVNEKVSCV

Serotonin 5-HT2C [11] = biological target: T2, Serotonin 5-HT2C (Homo sapiens, UniProt P28335); assay: Off target activity panel (first 5-HT2C line); type: binding; conditions: read-out: Inhibition at test concentration (%)
T2 sequence (P28335 33-458): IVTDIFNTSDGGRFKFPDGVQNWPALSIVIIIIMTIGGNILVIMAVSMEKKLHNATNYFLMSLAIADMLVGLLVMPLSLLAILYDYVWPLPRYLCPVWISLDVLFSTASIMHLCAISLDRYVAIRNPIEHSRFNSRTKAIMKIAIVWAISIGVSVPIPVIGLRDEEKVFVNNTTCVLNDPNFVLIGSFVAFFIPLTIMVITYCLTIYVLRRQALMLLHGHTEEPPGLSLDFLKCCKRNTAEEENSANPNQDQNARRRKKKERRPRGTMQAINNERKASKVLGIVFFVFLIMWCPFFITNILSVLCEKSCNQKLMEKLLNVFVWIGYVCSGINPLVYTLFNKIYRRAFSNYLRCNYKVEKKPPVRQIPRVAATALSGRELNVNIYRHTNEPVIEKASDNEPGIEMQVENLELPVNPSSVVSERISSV

Serotonin 5-HT2C [12] = biological target: T2, Serotonin 5-HT2C; assay: Off target activity panel (second 5-HT2C line); type: binding; conditions: read-out: Inhibition at test concentration (%)
Serotonin 5-HT3 = Serotonin 5-HT3 (Homo sapiens, UniProt P46098); assay: Off target activity panel; type: binding; conditions: read-out: Inhibition at test concentration (%)
Serotonin 5-HT4 = Serotonin 5-HT4 (Homo sapiens, UniProt Q13639); assay: Off target activity panel; type: binding; conditions: read-out: Inhibition at test concentration (%)
Serotonin 5-HT6 = Serotonin 5-HT6 (Homo sapiens, UniProt P50406); assay: Off target activity panel; type: binding; conditions: read-out: Inhibition at test concentration (%)
Somatostatin receptor 4 = Somatostatin receptor 4 (Homo sapiens, UniProt P31391); assay: Off target activity panel; type: binding; conditions: read-out: Inhibition at test concentration (%)
Kappa opioid receptor = Kappa opioid receptor (Homo sapiens, UniProt P41145); assay: Off target panel, functional activity (agonist/antagonist); type: biochemical; conditions: at 10 µM
PPAR gamma [13] = biological target: T1, PPAR gamma; assay: as above; type: biochemical; conditions: at 10 µM
hERG potassium channels = hERG potassium channels (Homo sapiens, UniProt Q12809)
[14] = 10 µM, read-out: Inhibition at test concentration (%)

In the case of `Nc1[nH]ncc1-c1cc(Cl)ccc1Oc1cc(F)c(S(=O)(=O)Nc2cscn2)cc1Cl` [PF-05089771, 4-[2-(5-amino-1H-pyrazol-4-yl)-4-chlorophenoxy]-5-chloro-2-fluoro-N-(1,3-thiazol-4-yl)benzenesulfonamide], the IC50 (L-type calcium channels) is reported as 10 µM, the IC50 (KvLQT) is reported as 10 µM and the Functional activity (human TRPV1 receptor; at 20 µM, TRPV1) is reported as “No agonist or antagonist activity at 20 µM”. For the same molecule, the “Blockade of human TRPV1 receptor” value (human TRPV1 receptor; tested concentrations up to 20 μM) was “No blockade”, the “Blockade of cynomolgus TRPV1 receptor” value [1] was “No blockade” and the “Neurons with action potential block” value ([2]; 30 nM) was 3 out of 7 and 3/7. For the same molecule, the “Neurons with action potential failure” value ([2]; 100 nM) was 5 out of 8 and 5/8, the inhibition at 10 µM (Adenosine A2a receptor) was 15% and the inhibition at 10 µM (Abl kinase receptor) was 9%. For the same molecule, the inhibition at 10 µM [3] was -4%, the inhibition at 10 µM [4] was 4% and the “Inhibition at test concentration (%)” value (GABA Benzodiazepine site) was 5%. For the same molecule, the “Inhibition at test concentration (%)” value [5] was 4%, the “Inhibition at test concentration (%)” value [6] was -6% and the inhibition at 10 µM (Carbonic anhydrase II) was 21%. The “Inhibition at test concentration (%)” value ([7]; 10 µM) was 54%, the Ki ([7]; Cloride channel (GABA-gated)) was 8.3 µM and the inhibition at 10 µM [8] was 17%. It also gave an inhibition at 10 µM (Cyclooxygenase 1) of 18%, an inhibition at 10 µM (Cyclooxegenase 2; [14]) of 72% and a Ki (Cyclooxegenase 2; Cyclooxegenase 2) of 5.4 µM. It also gave an inhibition at 10 µM (Histamine H3 receptor) of 10%, an inhibition at 10 µM (Lyn A kinase; [14]) of 51% and a Ki (Lyn A kinase; Lyn A kinase) of 7.3 µM. The inhibition at 10 µM (Melanocortin 4 receptor) was -11%, the “Inhibition at test concentration (%)” value [9] was 2% and the inhibition at 10 µM (Neurokinin NK2 receptor) was -10%. For the same molecule, the inhibition at 10 µM (p38alpha kinase) was 8%, the “Inhibition at test concentration (%)” value (PDE6) was 7% and the inhibition at 10 µM (PDE11) was 6%. It also gave an inhibition at 10 µM (PPAR gamma [10]; [14]) of 60%, a Ki (PPAR gamma [10]; PPAR gamma) of 2.8 µM and an inhibition at 10 µM (Serotonin 5-HT1B) of 6%. For the same molecule, the inhibition at 10 µM (Serotonin 5-HT2A) was -2%, the inhibition at 10 µM (Serotonin 5-HT2C [11]) was -4% and the inhibition at 10 µM (Serotonin 5-HT2C [12]) was 4%. For the same molecule, the inhibition at 10 µM (Serotonin 5-HT3) was 4%, the inhibition at 10 µM (Serotonin 5-HT4) was -7% and the inhibition at 10 µM (Serotonin 5-HT6) was 2%. The inhibition at 10 µM (Somatostatin receptor 4) was 5%, the Functional activity (Kappa opioid receptor) was “no agonist or antagonist activity at 10 µM” and the Functional activity (PPAR gamma [13]) was “no agonist or antagonist activity at 10 µM”. It also gave an IC50 (hERG potassium channels) of 10 µM.
